Data taken from patent US10919937B2, “Bicyclic peptide ligands and uses thereof” (BicycleTx Limited, priority 2018, dated 2021).
pKi: −log10 of the molar value. Read-outs that look alike come from different tables or passages of the source. *1 amine or outer side, *2 acyl side, *3 side chain or, on linkers, in order; H or OH if unused. Where a SMILES comes first, the peptide text is derived from it. Bridges are numbered along the chain shown (N, C = ends). [ ]: non-standard residue; d: D form. X11 = O=C(C[*:1])N1CCN(c2ccc(-c3nc(-c4ccc(N5CCN(C(=O)C[*:2])CC5)cc4)nc(-c4ccc(N5CCN(C(=O)C[*:3])CC5)cc4)n3)cc2)CC1; X14 = CC(C)(C)[C@H](N[*:3])C(=O)C[C@@H](CSCc1ccc(-c2nc(-c3ccc(C[*:1])cc3)nc(-c3ccc(C[*:2])cc3)n2)cc1)C(N)=O; X10 = O=C(C[*:1])N1CCC(N2CCN(c3nc(N4CCN(C5CCN(C(=O)C[*:2])CC5)CC4)nc(N4CCN(C5CCN([*:3])CC5)CC4)n3)CC2)CC1; X12 = CC(C)(C)[C@H](N[*:3])C(=O)C[C@@H](CSCc1ccc(CN(Cc2ccc(C[*:1])cc2)Cc2ccc(C[*:2])cc2)cc1)C(N)=O; X6 = O=C(C[*:1])N1Cc2cccc(c2)CN(C(=O)C[*:2])Cc2cccc(c2)CN(C(=O)C[*:3])Cc2cccc(c2)C1; X3 = CC(C)(C)[C@H](N[*:1])C(=O)C[C@@H](CSCc1ccc(C(=O)[*:2])cc1)C(N)=O; X1 = c1cc(-c2nc(-c3ccc(C[*:2])cc3)nc(-c3ccc(C[*:3])cc3)n2)ccc1C[*:1]; X4 = O=C(c1ccc(C[*:1])cc1)N1CN(C(=O)c2ccc(C[*:2])cc2)CN([*:3])C1; X9 = CC(C)(C)[C@H](N[*:1])C(=O)C[C@@H](CSCC(=O)[*:2])C(N)=O; 1Nal = N[C@@H](Cc1cccc2ccccc12)C(=O)O; TBMB = c1c(C[*:1])cc(C[*:3])cc1C[*:2]; Tle = CC(C)(C)[C@H](N)C(=O)O

Tests used:
CAIX = CAIX (Homo sapiens, UniProt Q16790); assay: CAIX Competition Binding Assay (competition fluorescence polarization)
Experimental: CAIX Competition Binding Assay. Affinity of the peptides of the invention for human CAIX (Ki) is determined using a competition fluorescence polarization assay analogous to that described in Dubois et al. (2011) Radiotherapy and Oncology 99(3), 424-43 using A-(CAECWIDGWVPC)-A-Sar6-K(Fl), (SEQ ID NO: 11), as the fluorescent ligand.
Compounds described as “B” have a K, equal to or greater than 0.5 μM and less than 1 μM. Compounds described as “C” have a K, equal to or greater than 1 μM and less than 10 μM. Compounds described as “D” have a K, equal to or greater than 10 μM.

MT1-MMP hemopexin domain = MT1-MMP hemopexin domain (Homo sapiens, UniProt P50281); assay: MT1-MMP Direct Binding Fluorescence Polarization (Anisotropy) Assay; conditions: MT1-MMP direct binding FP, n=2
Experimental: Direct Binding Fluorescence Polarization or Anisotropy Assays are performed by titrating a constant concentration of fluorescent tracer (here, the fluoresceinated bicyclic peptide to be studied) with its binding partner (here, the MT1-MMP hemopexin domain). As the concentration of binding partner increases during the titration, the polarization signal changes in proportion to the fraction of bound and unbound material. This allows determination of […] (Kd) quantitatively. Assay data can be fit using standard ligand binding equations.
Typically, concentrations of the tracer are ideally well below the Kd of the tracer:titrant pair, and concentrations chosen are usually at ˜1 nM or less. The titrant (binding partner) concentration is varied from 0.1 nM up to typically 5 μM. The range is chosen such that the maximum change in fluorescent polarization can be observed. Buffers employed are phosphate buffered saline in the presence of 0.01% Tween. Experiments were run in black 384 well low-bind/low volume plates (Corning 3820), and the fluorescent polarization signal was measured using a BMG Pherastar FS plate reader. Fluorescent tracers referred to in the text are bicyclic peptides that have been fluoresceinated using 5,6-carboxyfluorescein. Fluoresceination may be performed on the N-terminal amino group of the peptide, which is separated from the bicycle core sequence by a sarcosine spacer (usually Sar5). This can be done during Fmoc solid phase synthesis or post-synthetically (after cyclization with the molecular scaffold reagent and purification) if the N-terminal amino group is unique to the peptide. Fluoresceination can also be performed on the C-terminus, usually on a Lysine introduced as the first C-terminal residue, which is then separated from the bicycle core sequence by a sarcosine spacer (usually Sar6). Thus, N-terminal tracers can have a molecular format described as Fluo-Gly-Sar5-A(BicycleCoreSequence), and (BicycleCoreSequence)-A-Sar6-K(Fluo) for a C-terminally fluoresceinated construct.

[1] = human CAIX, competition FP, n = 2, read-out: Ki

SMILES | pKi (CAIX; [1]) | pKi (MT1-MMP hemopexin domain) | other results
CC(=O)N[C@H]1Cc2ccc(cc2)OCc2cc3cc(c2)CSC[C@H](NC(=O)[C@H](CCC(=O)O)NC(=O)[C@H]([C@@H](C)O)NC1=O)C(=O)N[C@@H](Cc1c[nH]c2ccccc12)C(=O)N[C@@H](C(C)C)C(=O)N[C@@H](CC(=O)O)C(=O)NCC(=O)N[C@@H](Cc1c[nH]c2ccccc12)C(=O)N[C@@H](C(C)C)C(=O)N1CCC[C@H]1C(=O)N[C@H](C(N)=O)Cc1ccc(cc1)OC3 [I-109] (Ac-YTECWVDGWVPY-NH2; linker 1-4-12 via TBMB) | 6.00 to 6.30 |  | 
C[C@H](N)C(=O)N[C@H]1CSCC(=O)N2Cc3cccc(c3)CN3Cc4cccc(c4)CN(Cc4cccc(c4)C2)C(=O)CSC[C@H](NC(=O)[C@@H](C)NC(=O)[C@H](Cc2cccc4ccccc24)NC(=O)[C@H](CCC(=O)O)NC(=O)[C@H](CC(N)=O)NC(=O)[C@@H](C)NC1=O)C(=O)N[C@@H](CCC(=O)O)C(=O)N[C@@H](CC(=O)O)C(=O)N[C@@H](Cc1ccccc1)C(=O)N[C@@H](Cc1ccc(O)cc1)C(=O)N[C@@H](CC(=O)O)C(=O)N[C@@H](C(C)(C)C)C(=O)N[C@H](C(N)=O)CSCC3=O [I-44] (H-AC[dA]NE[1Nal][dA]CEDFYD[Tle]C-NH2; linker 2-8-15 via X6) |  | ≤ 5.00 | 
C[C@H](N)C(=O)N[C@H]1CSCc2ccc(cc2)CN2Cc3ccc(cc3)CSC[C@@H](C(N)=O)CC(=O)[C@H](C(C)(C)C)NC(=O)[C@H](CC(=O)O)NC(=O)[C@H](Cc3ccc(O)cc3)NC(=O)[C@H](Cc3ccccc3)NC(=O)[C@H](CC(=O)O)NC(=O)[C@H](CCC(=O)O)NC(=O)[C@H](CSCc3ccc(cc3)C2)NC(=O)[C@@H](C)NC(=O)[C@H](Cc2cccc3ccccc23)NC(=O)[C@H](CCC(=O)O)NC(=O)[C@H](CC(N)=O)NC(=O)[C@@H](C)NC1=O [I-96] (H-AC[dA]NE[1Nal][dA]CEDFYD; linker 2-8-C via X12) |  | > 6.30 | 
CC(=O)N[C@H]1CSCc2cc3cc(c2)CSC[C@@H](C(N)=O)NC(=O)[C@@H]2CCCN2C(=O)[C@H](C(C)C)NC(=O)[C@H](Cc2c[nH]c4ccccc24)NC(=O)CNC(=O)[C@H](CC(=O)O)NC(=O)[C@H](C(C)C)NC(=O)[C@H](Cc2c[nH]c4ccccc24)NC(=O)[C@H](Cc2ccc(cc2)OC3)NC(=O)[C@H](CCC(=O)O)NC(=O)[C@H]([C@@H](C)O)NC1=O [I-108] (Ac-CTEYWVDGWVPC-NH2; linker 1-4-12 via TBMB) |  |  | pKi (CAIX): > 6.30
C[C@H](N)C(=O)N[C@H]1CSCC(=O)N2CCN(CC2)c2ccc(cc2)-c2nc3nc(n2)-c2ccc(cc2)N2CCN(CC2)C(=O)CSC[C@H](NC(=O)[C@@H](C)NC(=O)[C@H](Cc2cccc4ccccc24)NC(=O)[C@H](CCC(=O)O)NC(=O)[C@H](CC(N)=O)NC(=O)[C@@H](C)NC1=O)C(=O)N[C@@H](CCC(=O)O)C(=O)N[C@@H](CC(=O)O)C(=O)N[C@@H](Cc1ccccc1)C(=O)N[C@@H](Cc1ccc(O)cc1)C(=O)N[C@@H](CC(=O)O)C(=O)N[C@@H](C(C)(C)C)C(=O)N[C@H](C(N)=O)CSCC(=O)N1CCN(CC1)c1ccc-3cc1 [I-94] (H-AC[dA]NE[1Nal][dA]CEDFYD[Tle]C-NH2; linker 2-8-15 via X11) |  | > 6.30 | 
C[C@H](N)C(=O)N[C@H]1CSCC(=O)N2CCC(CC2)N2CCN(CC2)c2nc3nc(n2)N2CCN(CC2)C2CCN(CC2)C(=O)CSC[C@H](NC(=O)[C@@H](C)NC(=O)[C@H](Cc2cccc4ccccc24)NC(=O)[C@H](CCC(=O)O)NC(=O)[C@H](CC(N)=O)NC(=O)[C@@H](C)NC1=O)C(=O)N[C@@H](CCC(=O)O)C(=O)N[C@@H](CC(=O)O)C(=O)N[C@@H](Cc1ccccc1)C(=O)N[C@@H](Cc1ccc(O)cc1)C(=O)N[C@@H](CC(=O)O)C(=O)N[C@@H](C(C)(C)C)C(=O)C[C@H](C(N)=O)CSCC(=O)N1CCC(CC1)N1CCN3CC1 [I-91] (H-AC[dA]NE[1Nal][dA]CEDFYD[X9]; linker 2-8-C via X10) |  | > 6.30 | 
CC(=O)N[C@H]1CSCc2ccc(cc2)-c2nc3nc(n2)-c2ccc(cc2)CSC[C@H](NC(=O)[C@H](CCC(=O)O)NC(=O)[C@H]([C@@H](C)O)NC1=O)C(=O)N[C@@H](Cc1c[nH]c2ccccc12)C(=O)N[C@@H](C(C)C)C(=O)N[C@@H](CC(=O)O)C(=O)NCC(=O)N[C@@H](Cc1c[nH]c2ccccc12)C(=O)N[C@@H](C(C)C)C(=O)N1CCC[C@H]1C(=O)N[C@H](C(N)=O)CSCc1ccc-3cc1 [I-98] (Ac-CTECWVDGWVPC-NH2; linker 1-4-12 via X1) | > 6.30 |  | 
CC(C)[C@@H]1NC(=O)[C@H](Cc2c[nH]c3ccccc23)NC(=O)[C@@H]2CSCC(=O)N3Cc4cccc(c4)CN(Cc4cccc(c4)CN(Cc4cccc(c4)C3)C(=O)CSC[C@H](NC(=O)[C@H](C)NC(=O)CN(C)C(=O)CN(C)C(=O)CN(C)C(=O)CN(C)C(=O)CN(C)C(=O)CN(C)C(=O)CN(C)C(=O)CN(C)C(=O)CN(C)C(=O)CN(C)C(=O)CCN)C(=O)N[C@@H]([C@@H](C)O)C(=O)N[C@@H](CCC(=O)O)C(=O)N2)C(=O)CSC[C@@H](C(N)=O)NC(=O)[C@@H]2CCCN2C(=O)[C@H](C(C)C)NC(=O)[C@H](Cc2c[nH]c3ccccc23)NC(=O)CNC(=O)[C@H](CC(=O)O)NC1=O [I-23] | < 5.00 |  | 
C[C@H](N)C(=O)N[C@H]1CSCc2ccc(cc2)-c2nc3nc(n2)-c2ccc(cc2)CSC[C@H](NC(=O)[C@@H](C)NC(=O)[C@H](Cc2cccc4ccccc24)NC(=O)[C@H](CCC(=O)O)NC(=O)[C@H](CC(N)=O)NC(=O)[C@@H](C)NC1=O)C(=O)N[C@@H](CCC(=O)O)C(=O)N[C@@H](CC(=O)O)C(=O)N[C@@H](Cc1ccccc1)C(=O)N[C@@H](Cc1ccc(O)cc1)C(=O)N[C@@H](CC(=O)O)C(=O)N[C@@H](C(C)(C)C)C(=O)C[C@H](C(N)=O)CSCc1ccc-3cc1 [I-90] (H-AC[dA]NE[1Nal][dA]CEDFYD; linker 2-8-C via X14) |  | > 6.30 | 
C[C@H](N)C(=O)N[C@H]1CSCc2ccc(cc2)C(=O)N2CN3CN(C2)C(=O)c2ccc(cc2)CSC[C@H](NC(=O)[C@@H](C)NC(=O)[C@H](Cc2cccc4ccccc24)NC(=O)[C@H](CCC(=O)O)NC(=O)[C@H](CC(N)=O)NC(=O)[C@@H](C)NC1=O)C(=O)N[C@@H](CCC(=O)O)C(=O)N[C@@H](CC(=O)O)C(=O)N[C@@H](Cc1ccccc1)C(=O)N[C@@H](Cc1ccc(O)cc1)C(=O)N[C@@H](CC(=O)O)C(=O)N[C@@H](C(C)(C)C)C(=O)C[C@H](C(N)=O)CSCc1ccc(cc1)C3=O [I-93] (H-AC[dA]NE[1Nal][dA]CEDFYD[X3]; linker 2-8-C via X4) |  | > 6.30 | 
